The assay has as its system BDF1 mice, P388 leukemia ip, median survival T/C. Kind of assay: NCI In Vivo Anticancer Drug Screen. Data for tumor model P388 Leukemia (intraperitoneal) in B6D2F1 (BDF1) mice. The following applies: endpoint: median survival time, higher = longer survival. Put shortly:
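T/C = treated-group survival ÷ vehicle-control survival; tumour transplanted into mice before dosing.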

Setting [1] is: dose: 50.0 mg/kg/injection, schedule: Q01DX009 (ip), vehicle: saline.
The mark [2] stands for this setting: dose: 100.0 mg/kg/injection, schedule: Q04DX003 (ip), vehicle: saline.
The mark [3] stands for this setting: dose: 200.0 mg/kg/injection, schedule: Q04DX003 (ip), vehicle: saline.
Setting [4] is: dose: 100.0 mg/kg/injection, schedule: Q04DX003 (ip), vehicle: Klucel (hydroxypropylcellulose) (HPC).
[5] abbreviates: dose: 200.0 mg/kg/injection, schedule: Q04DX003 (ip), vehicle: Klucel (hydroxypropylcellulose) (HPC).
The mark [6] stands for this setting: dose: 100.0 mg/kg/injection, schedule: Q04DX003 (ip), vehicle: saline with Tween-80.
[7] abbreviates: dose: 200.0 mg/kg/injection, schedule: Q04DX003 (ip), vehicle: saline with Tween-80.
The mark [8] stands for this setting: dose: 400.0 mg/kg/injection, schedule: Q04DX003 (ip), vehicle: saline with Tween-80.
Setting [9] is: dose: 50.0 mg/kg/injection, schedule: Q04DX003 (ip), vehicle: saline with Tween-80.
[10] abbreviates: dose: 200.0 mg/kg/injection, schedule: Q01DX009 (ip), vehicle: saline with Tween-80.
The mark [11] stands for this setting: dose: 25.0 mg/kg/injection, schedule: Q04DX003 (ip), vehicle: saline.
Where [12] appears, read: dose: 50.0 mg/kg/injection, schedule: Q04DX003 (ip), vehicle: saline.
Setting [13] is: dose: 100.0 mg/kg/injection, schedule: Q01DX009 (ip), vehicle: saline.

“And” between values parts separate entries of the source, which are not always exact repeats. Equal values may be shown once. Inconclusive results and toxic doses are left out.

On to `CC[C@@]1(O)C(=O)OCc2c1cc1n(c2=O)Cc2cc3c(OC)cccc3nc2-1`, for which the T/C reads like this: (dose: 0.5 mg/kg/injection, schedule: Q01DX009 (ip), vehicle: carboxymethylcellulose (CMC)) 182 % of control; (dose: 1.0 mg/kg/injection, schedule: Q01DX009 (ip), vehicle: carboxymethylcellulose (CMC)) 195 % of control.
Turning to `NNC(=O)NC(=O)NN`, the T/C is 104 % of control under setting [1], 113 % of control under setting [2] and 113 % of control under setting [3].
Take `Cc1cnc2c(N)[nH]nc2n1`: the T/C by setting is: (dose: 50.0 mg/kg/injection, schedule: Q04DX003 (ip), vehicle: Klucel (hydroxypropylcellulose) (HPC)) 86 % of control; under setting [4], 109 % of control; under setting [5], 100 % of control.
In the case of `CC(SC(C)c1ccccc1)c1ccccc1` (centres undefined), the T/C by setting is: under setting [6], 108 % of control; under setting [7], 108 % of control; under setting [8], 116 % of control.
As for `O=C(Nc1cccc(C2=NCCCN2)c1)Nc1ccc(NC(=O)Nc2cccc(C3=NCCCN3)c2)c(Cl)c1`, the T/C (dose: 10.0 mg/kg/injection, schedule: Q01DX009 (ip), vehicle: saline with Tween-80) was 227 % of control; the T/C (dose: 11.0 mg/kg/injection, schedule: Q04DX003 (ip), vehicle: saline with Tween-80) was 182 % of control; the T/C (dose: 17.0 mg/kg/injection, schedule: Q04DX003 (ip), vehicle: saline with Tween-80) is 217 % of control; the T/C (dose: 20.0 mg/kg/injection, schedule: Q01DX009 (ip), vehicle: saline with Tween-80) was 204 % of control; the T/C (dose: 26.0 mg/kg/injection, schedule: Q04DX003 (ip), vehicle: saline with Tween-80) was 195 % of control and 209 % of control; the T/C (dose: 40.0 mg/kg/injection, schedule: Q04DX003 (ip), vehicle: saline with Tween-80) is 272 % of control. The T/C (dose: 60.0 mg/kg/injection, schedule: Q04DX003 (ip), vehicle: saline with Tween-80) was 272 % of control.
As for `C=CCN(C)/N=N/c1[nH]ncc1C(N)=O`, the T/C was 104 % of control (dose: 50.0 mg/kg/injection, schedule: Q01DX009 (ip), vehicle: saline with Tween-80); 104 % of control under setting [9]; 109 % of control under setting [6]; 87 % of control under setting [10]; 109 % of control under setting [7].
In the case of `CC(C)=CCC/C(C)=C/COC(=O)Cc1ccccc1`, the T/C runs as follows: (dose: 100.0 mg/kg/injection, schedule: Q01DX009 (ip), vehicle: saline with Tween-80) 104 % of control; under setting [6], 100 % of control; under setting [10], 109 % of control; under setting [7], 105 % of control; (dose: 400.0 mg/kg/injection, schedule: Q01DX009 (ip), vehicle: saline with Tween-80) 118 % of control; under setting [8], 122 % of control.
As for `COC(=O)C1CCN1C(C)(C)C` (centres undefined), the T/C by setting is: under setting [2], 100 % of control; under setting [3], 90 % of control; (dose: 400.0 mg/kg/injection, schedule: Q04DX003 (ip), vehicle: saline) 90 % of control.
Take `O=C(Nc1ccc(C2=NCCN2)cc1)c1ccc(C(=O)Nc2ccc(C3=NCCN3)cc2)c(Cl)c1`: the T/C (dose: 1.56 mg/kg/injection, schedule: Q01DX009 (ip), vehicle: saline with Tween-80) is 152 % of control; the T/C (dose: 3.13 mg/kg/injection, schedule: Q01DX009 (ip), vehicle: saline with Tween-80) is 161 % of control; the T/C (dose: 6.25 mg/kg/injection, schedule: Q01DX009 (ip), vehicle: saline with Tween-80) is 189 % of control and 204 % of control; the T/C (dose: 8.0 mg/kg/injection, schedule: Q01DX010 (ip), vehicle: water) is 150 % of control and 160 % of control; the T/C (dose: 10.0 mg/kg/injection, schedule: Q01DX010 (ip), vehicle: water) was 154 % of control and 195 % of control; the T/C (dose: 12.0 mg/kg/injection, schedule: Q01DX010 (ip), vehicle: water) is 160 % of control and 170 % of control. In addition, the T/C (dose: 12.5 mg/kg/injection, schedule: Q01DX009 (ip), vehicle: saline with Tween-80) is 250 % of control and 200 % of control and 211 % of control; the T/C (dose: 25.0 mg/kg/injection, schedule: Q01DX009 (ip), vehicle: saline with Tween-80) was 270 % of control and 108 % of control.
As to `CCCCNC(C)(C)C(SS)c1cccs1` (centres undefined), the T/C (dose: 100.0 mg/kg/injection, schedule: Q04DX003 (ip), vehicle: other) was 100 % of control and the T/C (dose: 200.0 mg/kg/injection, schedule: Q04DX003 (ip), vehicle: other) is 100 % of control.
For the compound `C1CNCOC1`, the T/C is, setting by setting: under setting [11], 105 % of control; under setting [12], 119 % of control.
In the case of `Clc1ccc(OCc2sc3ccc(Cl)cc3c2CN2CCCCC2)cc1`, the T/C reads like this: (dose: 25.0 mg/kg/injection, schedule: Q04DX003 (ip), vehicle: saline with Tween-80) 100 % of control; under setting [9], 90 % of control; under setting [6], 90 % of control.
Consider `CC[C@@H](c1ccc(O)cc1)[C@@H](CC)c1ccc(O)cc1`, for which the T/C is 90 % of control under setting [1]; 109 % of control under setting [13]; 94 % of control (dose: 100.0 mg/kg/injection, schedule: Q04DX003 (ip), vehicle: alcohol); 100 % of control (dose: 200.0 mg/kg/injection, schedule: Q04DX003 (ip), vehicle: alcohol).
As for `CCCCC/C=C/c1c(C)[nH]c2ccccc2c1=O`, the T/C is 95 % of control under setting [4]; 95 % of control under setting [5]; 113 % of control (dose: 400.0 mg/kg/injection, schedule: Q04DX003 (ip), vehicle: Klucel (hydroxypropylcellulose) (HPC)).
`C[n+]1cccc2ccccc21`: the T/C reads like this: (dose: 12.5 mg/kg/injection, schedule: Q01DX009 (ip), vehicle: saline) 95 % of control; (dose: 12.5 mg/kg/injection, schedule: Q04DX003 (ip), vehicle: saline) 104 % of control; (dose: 25.0 mg/kg/injection, schedule: Q01DX009 (ip), vehicle: saline) 100 % of control and 105 % of control; under setting [11], 104 % of control; under setting [1], 100 % of control and 110 % of control; under setting [12], 109 % of control. Also, under setting [13], the T/C was 109 % of control.
For the compound `O=S1(=O)C=CCCC=C1`, the T/C runs as follows: (dose: 50.0 mg/kg/injection, schedule: Q01DX009 (ip), vehicle: Klucel (hydroxypropylcellulose) (HPC)) 100 % of control; (dose: 100.0 mg/kg/injection, schedule: Q01DX009 (ip), vehicle: Klucel (hydroxypropylcellulose) (HPC)) 89 % of control.
`CC(C)(C)S[Si](Cl)(SC(C)(C)C)SC(C)(C)C`: the T/C is 119 % of control (dose: 100.0 mg/kg/injection, schedule: Q04DX002 (ip), vehicle: saline with Tween-80); 103 % of control (dose: 200.0 mg/kg/injection, schedule: Q04DX002 (ip), vehicle: saline with Tween-80); 94 % of control (dose: 400.0 mg/kg/injection, schedule: Q04DX002 (ip), vehicle: saline with Tween-80).
As for `COC1C(CO)OC(n2cnc3c(=S)nc(N)[nH]c32)C1O` (centres undefined), the T/C was 104 % of control under setting [6]; 104 % of control under setting [7]; 122 % of control (dose: 600.0 mg/kg/injection, schedule: Q04DX003 (ip), vehicle: saline with Tween-80).

Values taken from PubChem BioAssay AID328 (DTP/NCI, 2004).
